# Results taken from patent US12637661B2, “Methods of enhancing stem cell differentiation into beta cells” (Vertex Pharmaceuticals Incorporated, priority 2018, dated 2026).
# Columns and labels:
# [1] = system: stage 5 cells of hESC line (D97, D114, and D241 HUES8); test: Stage 5 of directed differentiation of hESC line treated with EZH2 inhibitor, HDAC inhibitor or combination; assay type: cell-based, human; conditions: for percentage of pre-SC-β cells (C-PEP+, NKX6-1+): stage 5, FIG. 15; for performance compared with other inhibitors of the same class: stage 5, FIGS. 14 and 15; for proportion of all β cell types: stage 5, FIG. 14
# Procedure: The mRNA expression of NGN3 was investigated in each steps of directed differentiation described herein (FIG. 5), and it was observed that cells expressed NGN3 to initiate SC-β cell differentiation (FIG. 7). The effects of inhibition of histone methylation and deacetylation on SC-β cell differentiation were investigated (FIG. 6). Stage 5 of the directed differentiation as described herein (FIGS. 5-6) in hESC line (D97, D114, and […] HUES8) was treated with an EZH2 inhibitor (DZNep), HDAC inhibitor (KD5170), and a combination thereof (FIG. 6). Candidate inhibitor screening was performed as described in FIG. 18. Inhibition of EZH2 or HDAC in stage 5 (D97 HUES8) increased endocrine cells and SC-β cells (FIG. 8). […] SC-β cells comprised 35.4% at the end of stage 5 with DZNep and KD5170. […] Combined inhibition of EZH2 and HDAC in stage 5 was tested as described in FIG. 17. Combined inhibition of EZH2 and HDAC in stage 5 ([…] HUES8) increased Neorogenin3+ progenitors in stage 5 (FIGS. 12-13). Combined inhibition of EZH2 and HDAC in stage 5 increased NKX6.1+ progenitor cells (FIG. 16).
# [2] = biological target: EZH2 (Homo sapiens, UniProt Q15910); conditions: cited from earlier work
# Chain of EZH2 (Q15910 whole entry, species assumed): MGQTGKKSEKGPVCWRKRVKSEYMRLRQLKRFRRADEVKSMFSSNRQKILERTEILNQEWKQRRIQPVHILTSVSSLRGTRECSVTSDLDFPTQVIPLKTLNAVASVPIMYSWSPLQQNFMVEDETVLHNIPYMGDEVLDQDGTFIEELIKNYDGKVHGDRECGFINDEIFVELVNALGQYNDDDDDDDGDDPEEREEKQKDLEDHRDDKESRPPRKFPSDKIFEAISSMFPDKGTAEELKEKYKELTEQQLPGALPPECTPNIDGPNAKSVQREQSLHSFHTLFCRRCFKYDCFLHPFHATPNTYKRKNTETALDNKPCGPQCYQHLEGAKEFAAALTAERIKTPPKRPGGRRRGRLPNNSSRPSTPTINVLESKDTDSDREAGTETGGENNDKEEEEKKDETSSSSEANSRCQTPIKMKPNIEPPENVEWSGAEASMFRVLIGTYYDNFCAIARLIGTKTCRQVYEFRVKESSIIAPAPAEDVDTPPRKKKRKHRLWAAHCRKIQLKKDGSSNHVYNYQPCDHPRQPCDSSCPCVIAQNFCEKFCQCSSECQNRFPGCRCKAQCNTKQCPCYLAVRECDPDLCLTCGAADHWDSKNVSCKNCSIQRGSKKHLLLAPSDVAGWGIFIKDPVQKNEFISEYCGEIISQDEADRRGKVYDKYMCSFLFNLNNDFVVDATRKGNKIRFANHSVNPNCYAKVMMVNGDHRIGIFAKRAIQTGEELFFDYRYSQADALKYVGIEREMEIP
# Chain of EZH2 (O75530 whole entry partner, species assumed): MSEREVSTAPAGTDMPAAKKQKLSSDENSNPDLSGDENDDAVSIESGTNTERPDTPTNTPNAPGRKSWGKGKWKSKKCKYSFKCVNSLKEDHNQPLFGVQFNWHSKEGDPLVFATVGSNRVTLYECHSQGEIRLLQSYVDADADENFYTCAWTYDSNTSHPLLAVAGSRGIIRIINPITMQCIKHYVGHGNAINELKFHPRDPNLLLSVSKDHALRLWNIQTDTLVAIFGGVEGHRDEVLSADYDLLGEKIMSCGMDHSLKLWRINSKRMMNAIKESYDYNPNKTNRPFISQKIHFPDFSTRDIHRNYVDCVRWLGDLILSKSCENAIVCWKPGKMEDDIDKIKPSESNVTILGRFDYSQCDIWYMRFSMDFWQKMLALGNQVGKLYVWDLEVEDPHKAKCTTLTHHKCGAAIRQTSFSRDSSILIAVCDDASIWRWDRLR
# Chain of EZH2 (Q15022 whole entry partner, species assumed): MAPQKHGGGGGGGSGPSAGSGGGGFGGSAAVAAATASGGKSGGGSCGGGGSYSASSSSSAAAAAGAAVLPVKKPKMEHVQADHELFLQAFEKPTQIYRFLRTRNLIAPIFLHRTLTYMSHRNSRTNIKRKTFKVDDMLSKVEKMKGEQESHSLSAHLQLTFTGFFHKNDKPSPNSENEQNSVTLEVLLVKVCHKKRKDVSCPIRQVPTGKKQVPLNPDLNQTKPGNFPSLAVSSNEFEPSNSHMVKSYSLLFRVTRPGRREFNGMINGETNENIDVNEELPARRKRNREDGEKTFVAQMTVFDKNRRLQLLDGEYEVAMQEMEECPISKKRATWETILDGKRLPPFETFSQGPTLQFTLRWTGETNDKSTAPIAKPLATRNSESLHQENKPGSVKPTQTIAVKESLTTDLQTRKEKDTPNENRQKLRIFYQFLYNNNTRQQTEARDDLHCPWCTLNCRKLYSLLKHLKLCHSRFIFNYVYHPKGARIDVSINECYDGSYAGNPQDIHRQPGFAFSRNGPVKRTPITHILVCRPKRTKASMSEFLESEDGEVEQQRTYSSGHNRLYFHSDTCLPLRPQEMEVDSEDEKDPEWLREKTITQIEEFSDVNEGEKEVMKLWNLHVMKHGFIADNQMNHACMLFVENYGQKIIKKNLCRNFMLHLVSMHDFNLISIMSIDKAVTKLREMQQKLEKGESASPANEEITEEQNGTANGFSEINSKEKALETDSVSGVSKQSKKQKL
compound,measurement,setting,value
"Nc1nccc2c1ncn2[C@@H]1C=C(CO)[C@@H](O)[C@H]1O [DZNep, 3-deazaneplanocin A]",viability,[1]; 1 μM throughout stage 5,without affecting viability
same,(VMAT1+INS−) EC population removed,"[1]; 1 μM throughout stage 5, FIGS. 19-21",more than half
same,proportion / differentiation of endocrine cells (CHGA+),[1]; stage 5,increased
same,"percentage of pre-SC-β cells (C-PEP+, NKX6-1+)",[1],increased
same,progenitors cells (NKX6-1+),"[1]; stage 5, FIG. 16",increased
same,VMAT1+INS− EC population,"[1]; stage 5, FIG. 19",specific decrease
same,NKX6.1-ChromA+ PH cells,"[1]; stage 5, FIG. 20",concomitant increase
same,NKX6.1+INS+ SC-β cell population,"[1]; stage 5, FIG. 21",unaffected
same,performance compared with other inhibitors of the same class,[1],outperforms other EZH2 inhibitors
same,selectivity / specificity for EZH2 (in words),[2],may not be specific to EZH2
CC[C@H](C)n1cc(C)c2c(C(=O)NCc3c(C)cc(C)[nH]c3=O)cc(-c3ccc(N4CCNCC4)nc3)cc21 [GSK126],proportion of all β cell types,[1],did not increase
CC(=O)SCC(=O)c1ccc(NS(=O)(=O)c2ccc(OCCCN(C)C)cc2)nc1 [KD5170],"percentage of pre-SC-β cells (C-PEP+, NKX6-1+)",[1],increased
same,performance compared with other inhibitors of the same class,[1],outperforms other HDAC inhibitors
O=C(CCCCCCC(=O)Nc1ccccc1)NO [SAHA],"percentage of pre-SC-β cells (C-PEP+, NKX6-1+)",[1],did not increase
CC(/C=C/C(=O)NO)=C\[C@@H](C)C(=O)c1ccc(N(C)C)cc1 [TSA],"percentage of pre-SC-β cells (C-PEP+, NKX6-1+)",[1],did not increase
CCCc1cc(C)[nH]c(=O)c1CNC(=O)c1cc(-c2ccc(N3CCN(C(C)C)CC3)nc2)cc2c1cnn2C(C)C [UNC1999],proportion of all β cell types,[1],did not increase
same,selectivity / specificity for EZH2 (in words),[2],less selective
CCCC(=O)[O-].[Na+] [sodium butyrate],"percentage of pre-SC-β cells (C-PEP+, NKX6-1+)",[1],did not increase
